Measurements taken from ChEMBL document CHEMBL3994622, “Design and synthesis of new RAF kinase-inhibiting antiproliferative quinoline derivatives. Part 2: Diarylurea derivatives” (Eur J Med Chem, 2017).

Legend:
[1] = tested on: Serine/threonine-protein kinase B-raf (Homo sapiens), P15056 [V600E]; experiment: Inhibition of human BRAF V600E mutant at 10 uM using MEK1 as substrate in presence of [33P]ATP by Hotspot assay relative to control
MDA-MB-468 [2] = experiment: Growth inhibition of human MDA-MB-468 cells assessed as cell growth at 0.03 uM incubated for 48 hrs by sulforhodamine B assay relative to control; format: functional; conditions: MDA-MB-468, 48 h, read-out: Activity
MDA-MB-468 [3] = experiment: Growth inhibition of human MDA-MB-468 cells assessed as cell growth at 0.01 uM incubated for 48 hrs by sulforhodamine B assay relative to control; format: functional; conditions: MDA-MB-468, 48 h, read-out: Activity
NCI-H226 [4] = experiment: Growth inhibition of human NCI-H226 cells assessed as cell growth at 0.5 uM incubated for 48 hrs by sulforhodamine B assay relative to control; format: functional; conditions: NCI-H226, 48 h, read-out: Activity
A549 = experiment: Growth inhibition of human A549/ATCC cells assessed as cell growth at 50 uM incubated for 48 hrs by sulforhodamine B assay relative to control; format: functional; conditions: A549, 48 h, read-out: Activity
NCI-H322M = experiment: Growth inhibition of human NCI-H322M cells assessed as cell growth at 0.005 uM incubated for 48 hrs by sulforhodamine B assay relative to control; format: functional; conditions: read-out: Activity
Malme-3M [5] = experiment: Growth inhibition of human MALME-3M cells assessed as cell growth at 0.5 uM incubated for 48 hrs by sulforhodamine B assay relative to control; format: functional; conditions: read-out: Activity
Malme-3M [6] = experiment: Growth inhibition of human MALME-3M cells assessed as cell growth at 5 uM incubated for 48 hrs by sulforhodamine B assay relative to control; format: functional; conditions: read-out: Activity
UACC-62 = experiment: Growth inhibition of human UACC62 cells assessed as cell growth at 0.05 uM incubated for 48 hrs by sulforhodamine B assay relative to control; format: functional; conditions: UACC-62, 48 h, read-out: Activity
SNB-75 = experiment: Growth inhibition of human SNB75 cells assessed as cell growth at 0.005 uM incubated for 48 hrs by sulforhodamine B assay relative to control; format: functional; conditions: SNB-75, 48 h, read-out: Activity
786-0 [7] = experiment: Growth inhibition of human 786-0 cells assessed as cell growth at 0.005 uM incubated for 48 hrs by sulforhodamine B assay relative to control; format: functional; conditions: 786-0, 48 h, read-out: Activity
SNB-19 = experiment: Growth inhibition of human SNB19 cells assessed as cell growth at 50 uM incubated for 48 hrs by sulforhodamine B assay relative to control; format: functional; conditions: SNB-19, 48 h, read-out: Activity
MDA-MB-231 = experiment: Growth inhibition of human MDA-MB-231 cells assessed as cell growth at 50 uM incubated for 48 hrs by sulforhodamine B assay relative to control; format: functional; conditions: MDA-MB-231, 48 h, read-out: Activity
M14 = experiment: Growth inhibition of human M14 cells assessed as cell growth at 50 uM incubated for 48 hrs by sulforhodamine B assay relative to control; format: functional; conditions: M14, 48 h, read-out: Activity
T47D = experiment: Growth inhibition of human T47D cells assessed as cell growth at 0.005 uM incubated for 48 hrs by sulforhodamine B assay relative to control; format: functional; conditions: read-out: Activity
SK-MEL-5 = experiment: Growth inhibition of human SK-MEL-5 cells assessed as cell growth at 50 uM incubated for 48 hrs by sulforhodamine B assay relative to control; format: functional; conditions: SK-MEL-5, 48 h, read-out: Activity
HOP-62 = experiment: Growth inhibition of human HOP62 cells assessed as cell growth at 0.005 uM incubated for 48 hrs by sulforhodamine B assay relative to control; format: functional; conditions: HOP-62, 48 h, read-out: Activity
NCI-H522 = experiment: Growth inhibition of human NCI-H522 cells assessed as cell growth at 5 uM incubated for 48 hrs by sulforhodamine B assay relative to control; format: functional; conditions: NCI-H522, 48 h, read-out: Activity
MOLT-4 = experiment: Growth inhibition of human MOLT4 cells assessed as cell growth at 0.05 uM incubated for 48 hrs by sulforhodamine B assay relative to control; format: functional; conditions: MOLT-4, 48 h, read-out: Activity
NCI/ADR-RES = experiment: Growth inhibition of human NCI/ADR-RES cells assessed as cell growth at 0.05 uM incubated for 48 hrs by sulforhodamine B assay relative to control; format: functional; conditions: read-out: Activity
BT-549 [8] = experiment: Growth inhibition of human BT549 cells assessed as cell growth at 0.5 uM incubated for 48 hrs by sulforhodamine B assay relative to control; format: functional; conditions: BT-549, 48 h, read-out: Activity
786-0 [9] = experiment: Growth inhibition of human 786-0 cells assessed as cell growth at 5 uM incubated for 48 hrs by sulforhodamine B assay relative to control; format: functional; conditions: 786-0, 48 h, read-out: Activity
OVCAR-4 = experiment: Growth inhibition of human OVCAR4 cells assessed as cell growth at 0.005 uM incubated for 48 hrs by sulforhodamine B assay relative to control; format: functional; conditions: OVCAR-4, 48 h, read-out: Activity
BT-549 [10] = experiment: Growth inhibition of human BT549 cells assessed as cell growth at 5 uM incubated for 48 hrs by sulforhodamine B assay relative to control; format: functional; conditions: BT-549, 48 h, read-out: Activity
MDA-MB-435 = experiment: Growth inhibition of human MDA-MB-435 cells assessed as cell growth at 0.005 uM incubated for 48 hrs by sulforhodamine B assay relative to control; format: functional; conditions: MDA-MB-435, 48 h, read-out: Activity
A498 = experiment: Growth inhibition of human A498 cells assessed as cell growth at 0.005 uM incubated for 48 hrs by sulforhodamine B assay relative to control; format: functional; conditions: A498, 48 h, read-out: Activity
SF-539 = experiment: Growth inhibition of human SF539 cells assessed as cell growth at 0.05 uM incubated for 48 hrs by sulforhodamine B assay relative to control; format: functional; conditions: SF-539, 48 h, read-out: Activity
ACHN = experiment: Growth inhibition of human ACHN cells assessed as cell growth at 0.005 uM incubated for 48 hrs by sulforhodamine B assay relative to control; format: functional; conditions: read-out: Activity
U-251 = experiment: Growth inhibition of human U251 cells assessed as cell growth at 50 uM incubated for 48 hrs by sulforhodamine B assay relative to control; format: functional; conditions: U-251, 48 h, read-out: Activity
NCI-H226 [11] = experiment: Growth inhibition of human NCI-H226 cells assessed as cell growth at 5 uM incubated for 48 hrs by sulforhodamine B assay relative to control; format: functional; conditions: NCI-H226, 48 h, read-out: Activity
HOP-92 = experiment: Growth inhibition of human HOP92 cells assessed as cell growth at 0.05 uM incubated for 48 hrs by sulforhodamine B assay relative to control; format: functional; conditions: HOP-92, 48 h, read-out: Activity
Hs-578T = experiment: Growth inhibition of human Hs 578T cells assessed as cell growth at 0.005 uM incubated for 48 hrs by sulforhodamine B assay relative to control; format: functional; conditions: read-out: Activity
UACC-257 = experiment: Growth inhibition of human UACC257 cells assessed as cell growth at 0.05 uM incubated for 48 hrs by sulforhodamine B assay relative to control; format: functional; conditions: UACC-257, 48 h, read-out: Activity

Sequence of Serine/threonine-protein kinase B-raf (Homo sapiens), P15056 [V600E] (P15056 whole entry V600E): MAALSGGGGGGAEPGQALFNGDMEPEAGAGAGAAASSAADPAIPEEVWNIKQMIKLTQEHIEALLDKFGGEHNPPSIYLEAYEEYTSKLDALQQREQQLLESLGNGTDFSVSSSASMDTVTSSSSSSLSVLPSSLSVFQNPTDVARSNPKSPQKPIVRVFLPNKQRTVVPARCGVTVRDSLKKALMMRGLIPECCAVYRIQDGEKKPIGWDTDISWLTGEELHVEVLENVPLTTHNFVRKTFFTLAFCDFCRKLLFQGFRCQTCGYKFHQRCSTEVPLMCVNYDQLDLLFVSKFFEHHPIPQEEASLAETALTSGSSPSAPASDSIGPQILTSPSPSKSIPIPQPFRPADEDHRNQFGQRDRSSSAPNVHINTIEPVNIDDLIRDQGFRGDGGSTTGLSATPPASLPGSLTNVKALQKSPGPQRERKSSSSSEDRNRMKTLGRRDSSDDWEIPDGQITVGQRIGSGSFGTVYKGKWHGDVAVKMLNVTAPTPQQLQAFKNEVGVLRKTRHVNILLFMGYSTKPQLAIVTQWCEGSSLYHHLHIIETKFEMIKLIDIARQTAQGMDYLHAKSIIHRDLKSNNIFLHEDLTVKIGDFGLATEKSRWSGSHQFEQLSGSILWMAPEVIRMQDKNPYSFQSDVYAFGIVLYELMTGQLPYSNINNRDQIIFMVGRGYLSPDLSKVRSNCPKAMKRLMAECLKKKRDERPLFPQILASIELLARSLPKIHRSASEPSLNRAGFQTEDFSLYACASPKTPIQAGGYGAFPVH

## COc1cc2cc(Oc3ccc(NC(=O)Nc4ccc(Cl)c(C(F)(F)F)c4)cc3)c(C)nc2cc1OC
[1]
  inhibition: 88.9%

## Cc1nc2cc(O)c(O)cc2cc1Oc1ccc(NC(=O)Nc2ccc(Cl)c(Cl)c2)cc1
MDA-MB-468 [2]
  growth at 0.03 µM: 105%

## COc1cc2cc(Oc3ccc(NC(=O)Nc4cc(C(F)(F)F)cc(C(F)(F)F)c4)cc3)c(C)nc2cc1OC
MDA-MB-468 [3]
  growth at 0.01 µM: 101%

## COc1cc2cc(Oc3ccc(NC(=O)Nc4cccc(C(F)(F)F)c4)cc3)c(C)nc2cc1OC
NCI-H226 [4]
  growth at 0.5 µM: 108%
A549
  growth at 50 µM: -72%
NCI-H322M
  growth at 0.005 µM: 91%
Malme-3M [5]
  growth at 0.5 µM: 108%
Malme-3M [6]
  growth at 5 µM: -1%
UACC-62
  growth at 0.05 µM: 94%
SNB-75
  growth at 0.005 µM: 79%
786-0 [7]
  growth at 0.005 µM: 98%
SNB-19
  growth at 50 µM: -26%
MDA-MB-231
  growth at 50 µM: -82%
M14
  growth at 50 µM: -61%
T47D
  growth at 0.005 µM: 90%
SK-MEL-5
  growth at 50 µM: -100%
HOP-62
  growth at 0.005 µM: 95%
NCI-H522
  growth at 5 µM: -4%
MOLT-4
  growth at 0.05 µM: 98%
NCI/ADR-RES
  growth at 0.05 µM: 101%
BT-549 [8]
  growth at 0.5 µM: 86%
786-0 [9]
  growth at 5 µM: 12%
OVCAR-4
  growth at 0.005 µM: 92%
BT-549 [10]
  growth at 5 µM: 7%
MDA-MB-435
  growth at 0.005 µM: 95%
A498
  growth at 0.005 µM: 113%
SF-539
  growth at 0.05 µM: 96%
ACHN
  growth at 0.005 µM: 97%
U-251
  growth at 50 µM: -99%
NCI-H226 [11]
  growth at 5 µM: 3%
HOP-92
  growth at 0.05 µM: 96%
Hs-578T
  growth at 0.005 µM: 90%
UACC-257
  growth at 0.05 µM: 94%
